From PubChem BioAssay AID1259411 (Chemical Carcinogenesis Research Information System (CCRIS), 2018)
Active and inactive are the calls of the source. The rule behind the calls is not given here.

Test system: rodent carcinogenicity bioassays, tumor incidence
Experiment: CCRIS carcinogenicity studies
Summary of the method: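 Archive of carcinogenicity, mutagenicity, tumor promotion and tumor inhibition results drawn from journals, NCI reports and other sources, expert-reviewed; covers 1985-2011 and is no longer updated.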

## CCCCC(CC)COC(=O)c1ccccc1C(=O)OCC(CC)CCCC (centres undefined)
Species: MOUSE, Strain/Sex: B6C3F1/FEMALE, Route: ORAL, Dose: 0, 3000, 6000 PPM IN DIET FOR 102-104 WK (STUDY DURATION: 102-104 WK), Dose: 0, 3000, 6000 PPM IN DIET FOR 102-104 WK (STUDY DURATION: 102-104 WK), Tumor Site: Type of Lesion: LIVER: CARCINOMA, CARCINOMA OR ADENOMA
  carcinogen call: active; positive
Species: MOUSE, Strain/Sex: B6C3F1/FEMALE, Route: ORAL, Dose: 0, 3000, 6000 PPM IN DIET FOR 103 WK (STUDY DURATION: 105 WK), Dose: 0, 3000, 6000 PPM IN DIET FOR 103 WK (STUDY DURATION: 105 WK), Tumor Site: Type of Lesion: LIVER: HEPATOCELLULAR CARCINOMA
  carcinogen call: active; positive
Species: MOUSE, Strain/Sex: B6C3F1/MALE, Route: ORAL, Dose: 0, 3000, 6000 PPM IN DIET FOR 102-104 WK (STUDY DURATION: 102-104 WK), Dose: 0, 3000, 6000 PPM IN DIET FOR 102-104 WK (STUDY DURATION: 102-104 WK), Tumor Site: Type of Lesion: LIVER: CARCINOMA, CARCINOMA OR ADENOMA
  carcinogen call: active; positive
Species: MOUSE, Strain/Sex: B6C3F1/MALE, Route: ORAL, Dose: 0, 3000, 6000 PPM IN DIET FOR 103 WK (STUDY DURATION: 104-105 WK), Dose: 0, 3000, 6000 PPM IN DIET FOR 103 WK (STUDY DURATION: 104-105 WK), Tumor Site: Type of Lesion: LIVER: HEPATOCELLULAR CARCINOMA
  carcinogen call: active; positive
Species: RAT, Strain/Sex: F344/FEMALE, Route: ORAL, Dose: 0, 6000, 12000 PPM IN DIET FOR 102-104 WK (STUDY DURATION: 102-104 WK), Dose: 0, 6000, 12000 PPM IN DIET FOR 102-104 WK (STUDY DURATION: 102-104 WK), Tumor Site: Type of Lesion: LIVER: CARCINOMA, CARCINOMA OR ADENOMA
  carcinogen call: active; positive
Species: RAT, Strain/Sex: F344/FEMALE, Route: ORAL, Dose: 0, 6000, 12000 PPM IN DIET FOR 103 WK (STUDY DURATION: 105 WK), Dose: 0, 6000, 12000 PPM IN DIET FOR 103 WK (STUDY DURATION: 105 WK), Tumor Site: Type of Lesion: LIVER: HEPATOCELLULAR CARCINOMA, NEOPLASTIC NODULE
  carcinogen call: active; positive
Species: RAT, Strain/Sex: F344/MALE, Route: ORAL, Dose: 0, 2% IN DIET FOR 78 WK (STUDY DURATION: 78 WK), Tumor Site: Type of Lesion: LIVER: NEOPLASM
  carcinogen call: active; positive
Species: RAT, Strain/Sex: F344/MALE, Route: ORAL, Dose: 0, 2% IN DIET FOR 108 WK (STUDY DURATION: 108 WK), Tumor Site: Type of Lesion: LIVER: NEOPLASTIC NODULE OR HEPATOCELLULAR CARCINOMA
  carcinogen call: active; positive
Species: RAT, Strain/Sex: F344/MALE, Route: ORAL, Dose: 0, 6000, 12000 PPM IN DIET FOR 102-104 WK (STUDY DURATION: 102-104 WK), Dose: 0, 6000, 12000 PPM IN DIET FOR 102-104 WK (STUDY DURATION: 102-104 WK), Tumor Site: Type of Lesion: LIVER: CARCINOMA, CARCINOMA OR ADENOMA
  carcinogen call: active; positive
Species: RAT, Strain/Sex: F344/MALE, Route: ORAL, Dose: 0, 6000, 12000 PPM IN DIET FOR 103 WK (STUDY DURATION: 104-105 WK), Dose: 0, 6000, 12000 PPM IN DIET FOR 103 WK (STUDY DURATION: 104-105 WK), Tumor Site: Type of Lesion: LIVER: HEPATOCELLULAR CARCINOMA OR NEOPLASTIC NODULE
  carcinogen call: active; positive
Species: RAT, Strain/Sex: SPRAGUE-DAWLEY/MALE (31-167/GROUP), Route: ORAL, Dose: 0, 30, 95, 300 MG/KG/D IN DIET UP TO 159 WK (STUDY DURATION: LIFE TIME), Dose: 0, 30, 95, 300 MG/KG/D IN DIET UP TO 159 WK (STUDY DURATION: LIFE TIME), Tumor Site: Type of Lesion: TESTIS: LEYDIG CELL TUMORS
  carcinogen call: active; positive
Species: RAT, Strain/Sex: SPRAGUE-DAWLEY/MALE (31-167/GROUP), Route: ORAL, Dose: 0, 30, 95, 300 MG/KG/D IN DIET UP TO 159 WK (STUDY DURATION: LIFETIME), Dose: 0, 30, 95, 300 MG/KG/D IN DIET UP TO 159 WK (STUDY DURATION: LIFETIME), Tumor Site: Type of Lesion: LIVER: CHOLANGIOCELLULAR TUMORS, TESTIS: LEYDIG CELL TUMORS (SIGNIFICANT DOSE RELATED TREND, INCIDENCE COMPARED TO CONTR, Tumor Site: Type of Lesion: LIVER: CHOLANGIOCELLULAR TUMORS, TESTIS: LEYDIG CELL TUMORS (SIGNIFICANT DOSE RELATED TREND, INCIDENCE COMPARED TO CONTR
  carcinogen call: active; positive

## Cc1[nH]cnc1CSCCN=C(NC#N)N(C)N=O
Species: MOUSE, Strain/Sex: B6C3F1/FEMALE, Route: ORAL, Dose: 0, 18.8, 190 MG/D IN DRINKING WATER FOR LIFE ADMINISTERED TO MICE OF MOTHERS EXPOSED TO SAME DOSES THROUGH PREGNANCY AND, Dose: 0, 18.8, 190 MG/D IN DRINKING WATER FOR LIFE ADMINISTERED TO MICE OF MOTHERS EXPOSED TO SAME DOSES THROUGH PREGNANCY AND
  carcinogen call: inactive; negative
Species: MOUSE, Strain/Sex: B6C3F1/MALE, Route: ORAL, Dose: 0, 18.8, 190 MG/D IN DRINKING WATER FOR LIFE ADMINISTERED TO MICE OF MOTHERS EXPOSED TO SAME DOSES THROUGH PREGNANCY AND, Dose: 0, 18.8, 190 MG/D IN DRINKING WATER FOR LIFE ADMINISTERED TO MICE OF MOTHERS EXPOSED TO SAME DOSES THROUGH PREGNANCY AND
  carcinogen call: inactive; negative
Species: MOUSE, Strain/Sex: C57BL/FEMALE, Route: ORAL, Dose: 0, 18.8, 190 MG/D IN DRINKING WATER BEGINNING AT 7-8 WK OF AGE AND CONTINUING FOR STUDY DURATION (STUDY DURATION: LIFE S, Dose: 0, 18.8, 190 MG/D IN DRINKING WATER BEGINNING AT 7-8 WK OF AGE AND CONTINUING FOR STUDY DURATION (STUDY DURATION: LIFE S
  carcinogen call: inactive; negative
Species: RAT, Strain/Sex: F344/FEMALE, Route: ORAL, Dose: 0, 150 MG/L IN DRINKING WATER 5D/WK FOR 106 WK FOR A TOTAL DOSE OF 0, 1600 MG (STUDY DURATION: 131 WK), Dose: 0, 150 MG/L IN DRINKING WATER 5D/WK FOR 106 WK FOR A TOTAL DOSE OF 0, 1600 MG (STUDY DURATION: 131 WK)
  carcinogen call: inactive; negative
Species: RAT, Strain/Sex: F344/MALE, Route: ORAL, Dose: 0, 150 MG/L IN DRINKING WATER 5D/WK FOR 106 WK FOR A TOTAL DOSE OF 0, 1600 MG (STUDY DURATION: 131 WK), Dose: 0, 150 MG/L IN DRINKING WATER 5D/WK FOR 106 WK FOR A TOTAL DOSE OF 0, 1600 MG (STUDY DURATION: 131 WK)
  carcinogen call: inactive; negative
Species: RAT, Strain/Sex: SPRAGUE-DAWLEY/FEMALE, Route: GAVAGE, Dose: 0, 50, 500 MG/KG 2/WK FOR 1 YR (STUDY DURATION: LIFETIME), Dose: 0, 50, 500 MG/KG 2/WK FOR 1 YR (STUDY DURATION: LIFETIME)
  carcinogen call: inactive; negative
Species: RAT, Strain/Sex: SPRAGUE-DAWLEY/MALE, Route: GAVAGE, Dose: 0, 50, 500 MG/KG 2/WK FOR 1 YR (STUDY DURATION: LIFETIME), Dose: 0, 50, 500 MG/KG 2/WK FOR 1 YR (STUDY DURATION: LIFETIME)
  carcinogen call: inactive; negative

## CCc1cccc2c3c([nH]c12)C(CC)(CC(=O)O)OCC3 (centres undefined)
Species: MOUSE, Strain/Sex: CD-1/FEMALE, Route: ORAL, Dose: 0;3, 9, 15 MG/KG/D IN DIET FOR 78 WK (STUDY DURATION: 78 WK), Dose: 0;3, 9, 15 MG/KG/D IN DIET FOR 78 WK (STUDY DURATION: 78 WK)
  carcinogen call: inactive; negative
Species: MOUSE, Strain/Sex: CD-1/MALE, Route: ORAL, Dose: 0, 3, 9, 15 MG/KG/D IN DIET FOR 78 WK (STUDY DURATION: 78 WK), Dose: 0, 3, 9, 15 MG/KG/D IN DIET FOR 78 WK (STUDY DURATION: 78 WK)
  carcinogen call: inactive; negative
Species: RAT, Strain/Sex: STRAIN-CD/FEMALE, Route: ORAL, Dose: 0, 3, 9, 15 MG/KG/D IN DIET FOR 104 WK (STUDY DURATION: 104 WK), Dose: 0, 3, 9, 15 MG/KG/D IN DIET FOR 104 WK (STUDY DURATION: 104 WK)
  carcinogen call: inactive; negative
Species: RAT, Strain/Sex: STRAIN-CD/MALE, Route: ORAL, Dose: 0, 3, 9, 15 MG/KG/D IN DIET FOR 104 WK (STUDY DURATION: 104 WK), Dose: 0, 3, 9, 15 MG/KG/D IN DIET FOR 104 WK (STUDY DURATION: 104 WK)
  carcinogen call: inactive; negative

## O=C/C(Br)=C/c1ccccc1
Species: MOUSE, Strain/Sex: SLC:DDY/FEMALE, Route: DERMAL, Dose: 0, 0.25, 1, 4% IN OLIVE OIL 2/WK FOR 79 WK (STUDY DURATION: 79 WK), Dose: 0, 0.25, 1, 4% IN OLIVE OIL 2/WK FOR 79 WK (STUDY DURATION: 79 WK)
  carcinogen call: inactive; negative
